Reference: patent publication US10039741B2, “Use of delta tocopherol for the treatment of lysosomal storage disorders” (The United States of America, as represented by the …, priority 2010, dated 2018)
“Also recorded” adds a separate entry of the source.

Tests used:
neuron-like NPCD cells [1] = experiment: Filipin staining co-stained with neuronal beta III tubulin; format: cell-based, human; details: neuron-like cells differentiated from NPCD patient MSC
Experimental: (§1) The adipose mesenchymal stem cells (HMSC.AD-100, HMSC-NPC22 and HMSC-NPC23) were isolated from two NPC patients as well as one heath individual and provided by Celleng-tech (Coralville, Iowa). These cells were maintained in MSC expansion media (Celleng-tech, cat# HMSC.E.Media-450) supplemented with 10% FBS 100 unit/ml penicillin and 100 μg/ml streptomycin at 5% CO2, 37° C. For neural differentiation, cells were initially plated at 30% confluency (˜2500 cells/cm^2) using MSC expansion media. After 24 hours, MSC expansion media were withdrew. Cells were washed twice with Dulbecco's phosphate Buffer saline (Invitrogen) and incubated with neural differentiation media (Celleng-tech, cat# NEU.D.Media-450) supplemented with 10% FBS, 100 unit/ml penicillin and 100 μg/ml streptomycin at 5% CO2, 37° C. for additional 3 days.
MSC cells were seeded on coverslips on day 0 in MSC expansion medium. On day 1, cells were washed twice with warm PBS buffer and then incubated with MSC neuronal differentiation medium. On day 4, media were replaced with fresh neuronal differentiation medium. On day 6, cells were fixed with 3.2% paraformaldehyde in HBSS for 15 min. Immunocytochemistry for neuronal beta III tubulin and unesterified cholesterol (filipin staining) was performed as described. The coverslips were examined y a XXX microscope. […]

NPC fibroblasts = experiment: Microarray gene expression; format: cell-based, human; set-up: HMGCR expression, Toco treat NPC / SC4MOL expression, Toco treat NPC / DHCR7 expression, Toco treat NPC / MMP3 expression, Toco treat NPC: unit not given here; details: 40 μM delta-tocopherol 5 days vs DMSO-treated
Experimental: (§2) Five NPC fibroblast cell lines as well as five normal fibroblast cell lines were treated with 40 μM delta-tocopherol for 5 days with a medium change and sully of fresh compound on 3rd day. The total RNAs was prepared as the standard method described previously ( ). The microarray gene expression experiment was carried out in a core microarray facility at NHGRI with a set of AAAAA chips (Affymetrix). Partek Genomics Software Suite (Copyright, Partek Inc.) was used to perform analysis of microarray data. Affymetrix cell files were loaded into the software using the RMA algorithm, which involved background correction, quantile normalization, log-2 transformation, and median polish summarization. PCA and hierarchical clustering identified one sample as an outlier. This sample (sample number 12) was not considered for further analysis. ANOVA was performed to identify the differentially expressed genes for three comparisons: 1) NPC_DMSO vs WT_DMSO 2) NPC tocopherol-treated vs NPC_DMSO-treated and 3) WT_tocopherol-treated vs WT_DMSO-treated.

WT fibroblasts = experiment: Microarray gene expression; format: cell-based, human; set-up: ACACA expression, Toco treat WT / HMGCR expression, Toco treat WT / SREBF2 expression, Toco treat WT / LDLR expression, Toco treat WT: unit not given here; details: 40 μM delta-tocopherol 5 days vs DMSO-treated
Experimental: as §2

[2] = human plasma, physiological level; cited from earlier work
NPC cells = format: cell-based, human
Experimental: We disclose that the compound's cytotoxicity could interfere with these cell-based assays that often appeared as the false positives for cholesterol reduction and lysosome size decrease. […] Although the tocotrienol effect on these NPCD cells were observed, they were more toxic in our assays and the additional compound purification (to 99%).
To measure the cytotoxicity of compounds, an ATP content assay was used with a commercial assay kit (ATP-Lite, PerkinElmer). Cells were seeded in white solid 1536-well plates and treated with compounds same as in the cholesterol oxidase assay describe above. After 3-day compound treatment, 3 μl/well detection mixture (prepared according to the manufacturer's instructions) was added to each well and the plates were incubated for 10 min at room temperature followed by a measurement using a Viewlux plate reader in a luminescence mode. The buffer in the detection mixture lyses cells and releases cellular ATP which reacts with luciferin in the presence of luciferase to produce light. The luminescence signal reduces if the cells are killed by the compound during the 3-day treatment.

NPCD MSC cells = experiment: Lysosome size; format: cell-based, human
Experimental: as §1

neuron-like NPCD cells [3] = experiment: Lysosome size; format: cell-based, human; details: neuron-like cells differentiated from NPCD patient MSC
Experimental: as §1

NPCD fibroblasts = experiment: Lysotracker staining assay (lysosome size); format: cell-based, human
Experimental: Lysotracker is fluorescent dye that stains acidic compartments in live cells and is well-retained after aldehyde fixation. We have optimized a lysotracker staining assay to visualize the enlarged lysosome size in the NPC skin fibroblasts by applying appropriate concentration of lysotracker dye in comparison with these normal fibroblast cells. Cells were seeded at 8000 cells/well in 100 μl medium in a black/clear bottom, tissue culture treated plate and cultured overnight or in a dedicated time. The cells were live-stained with 100 u/well 50 nM Lysotracker Red-99 dye (Invitrogen) dissolved medium at 37° C. for 1 hr followed by two-times plate wash with PBS buffer using the plate-inverted centrifugation method. The plate was then added with 100 μl/well 3.2% formaldehyde and 1 μg/ml Hoechst 33342 (Invitrogen) in PBS and incubated at room temperature for 30 minutes. After three times of plate wash with PBS buffer, samples were stored at 4° C. until imaging. Samples were photographed using an IN Cell Analyzer 1000 (GE Healthcare) with a 20× objective equipped with CCD camera. DAPI filter and TRITC filter were used to visualize Hoechst and Lysotracker red, respectively. The images were processed by Adobe Photoshop.

[4] = system: Niemann Pick type A disease fibroblasts; experiment: Lysotracker staining assay; format: cell-based, human

Cc1cc(O)cc2c1O[C@](C)(CCC[C@H](C)CCC[C@H](C)CCCC(C)C)CC2 [δ-tocopherol]
cholesterol accumulation (neuron-like NPCD cells [1]): significant reduction | ABCA1 expression, Toco treat NPC (NPC fibroblasts): significantly reduced; also recorded: decreased expression | ACACA expression, Toco treat NPC (NPC fibroblasts): −1.5 | DHCR7 expression, Toco treat NPC (NPC fibroblasts): −1.7 | FADS2 expression, Toco treat NPC (NPC fibroblasts): −2.5 | FRRS1 expression, Toco treat NPC (NPC fibroblasts): 1.1 | HMGCR expression, Toco treat NPC (NPC fibroblasts): decreased | HMGCS1 expression, Toco treat NPC (NPC fibroblasts): −1.9 | INSIG1 expression, Toco treat NPC (NPC fibroblasts): −1.8 | LDLR expression, Toco treat NPC (NPC fibroblasts): significantly reduced; also recorded: decreased expression | MMP1 expression, Toco treat NPC (NPC fibroblasts): 2.7 | MMP3 expression, Toco treat NPC (NPC fibroblasts): 1.7 | NOX4 expression, Toco treat NPC (NPC fibroblasts): −1.1 | SC4MOL expression, Toco treat NPC (NPC fibroblasts): −1.4 | SCD expression, Toco treat NPC (NPC fibroblasts): decreased | SREBF1 expression, Toco treat NPC (NPC fibroblasts): −1.4 | SREBF2 expression, Toco treat NPC (NPC fibroblasts): −1.6 | ABCA1 expression, Toco treat NPC (NPC fibroblasts; listed as tocopherol): −2.0 | HMGCR expression, Toco treat NPC (NPC fibroblasts; listed as tocopherol): −1.7 | LDLR expression, Toco treat NPC (NPC fibroblasts; listed as tocopherol): −2.0 | SCD expression, Toco treat NPC (NPC fibroblasts; listed as tocopherol): −3.9 | ABCA1 expression, Toco treat WT (WT fibroblasts): −1.4 | ACACA expression, Toco treat WT (WT fibroblasts): −1.5 | DHCR7 expression, Toco treat WT (WT fibroblasts): −1.6 | FADS2 expression, Toco treat WT (WT fibroblasts): −2.0 | FRRS1 expression, Toco treat WT (WT fibroblasts): −1.1 | HMGCR expression, Toco treat WT (WT fibroblasts): −1.5 | HMGCS1 expression, Toco treat WT (WT fibroblasts): −1.6 | INSIG1 expression, Toco treat WT (WT fibroblasts): −1.6 | LDLR expression, Toco treat WT (WT fibroblasts): −2.0 | MMP1 expression, Toco treat WT (WT fibroblasts): 5.0 | MMP3 expression, Toco treat WT (WT fibroblasts): 2.0 | NOX4 expression, Toco treat WT (WT fibroblasts): −1.7 | SC4MOL expression, Toco treat WT (WT fibroblasts): −1.7 | SCD expression, Toco treat WT (WT fibroblasts): −3.5 | SREBF1 expression, Toco treat WT (WT fibroblasts): −1.2 | SREBF2 expression, Toco treat WT (WT fibroblasts): −1.6 | plasma concentration [2]: ~100 nM | cytotoxicity (NPC cells): not present | lysosome size (NPCD MSC cells): decrease in lysosome size | lysosome size (neuron-like NPCD cells [3]): decrease in lysosome size | effect on lysosome size decrease (NPCD fibroblasts; 9 additional fibroblast primary cells from different NPCD patients): confirmed | enlarged lysosome size (NPCD fibroblasts; NPCD fibroblasts): decreased and shrunken to the size similar to the wild type cells | size of enlarged lysosomes [4]: significantly reduced
